Assay results as given in patent publication US7098372B1, “Pharmaceutical compositions and methods of using secreted frizzled related protein” (Wyeth, priority 1999, dated 2006).

Tests used:
hOB SFRP mRNA = assay: TaqMan quantitative RT-PCR of hOB SFRP mRNA; type: cell-based, human; details: 24 hr
Experimental: In a similar manner, the hOB-01-C1 cells were seeded into 100 mm dishes and treated for 24 hr with increasing concentrations of TGF-β1. Total RNA was then isolated from the cells, and hOB SFRP mRNA was measured by TaqMan quantitative RT-PCR. TGF-β1 suppressed SFRP gene expression by approximately 70% in a dose-dependent manner with an IC50 of about 4 pM.
In addition to the hOB cell lines from which SFRP was initially identified, additional in vitro human osteoblast models were examined for the presence of the gene. SaOS-2 human osteosarcoma osteoblast-like cells were obtained from the American Type-Culture Collection (ATCC) and were cultured at 37° C. in McCoy's 5A Modified medium containing 10% FBS, 1% (v/v) Penicillin-Streptomycin and 2 mM GlutaMAX-1. Likewise, explant cultures of normal human osteoblasts (hOBs) were established from cancellous bone chips as previously described (Bodine et al. 1996 J. Bone Miner. Res. 11: 806–819, which is incorporated herein by reference). The cells were then seeded into 150 mm dishes and treated as described in Examples 1 and 4, except that the cells were incubated at 37° C. instead of 39° C. PolyA+ RNA Northern blot analysis was performed using the cloned 1.1 kb hOB SRFP gene fragment as a ^32P-label). SaOS-2 cells expressed relatively low basal levels of SFRP mRNA which was not regulated by treatment with either PTH, PGE2 or TGF-β1 (FIG. 7). It was difficult to quantify expression of this gene in these cells, since the level of expression was low. In contrast, normal hOB cells expressed higher basal levels of SFRP message, and treatment of the cells with 100 nM PGE2 for 24 hr appeared to slightly up-regulate the steady-state levels of this mRNA (˜1.3-fold). […] Due to the low basal level expression in osteosarcoma cells, these cells may not be satisfactory in vitro models to study the regulation of the SFRP gene. Since the gene is expressed and regulated by PGE2 in cultures of normal human osteoblasts, the use of the hOB cell lines described in the present invention is validated for in vitro osteoblast models.

[1] = test system: hOB-03-C5, hOB-03-CE6 and hOB-01-C1 cells; assay: hOB cell viability in serum-free medium, Coulter cell counter; type: cell-based, human; details: 39° C.
Experimental: For these experiments, the cells were treated with either control or PGE2 (panels A & B) or control and TGF-β1 (panel C) in serum-free medium at 39° C. for 3 or 6 days. The results are presented as the % relative to the day 0 control (i.e., […] cells per well of a 6 well plate). The results of this experiment indicate that hOB cell viability declines over time in serum-free medium. In addition, for the hOB-03-C5 and hOB-03-CE6 cells, this rate of decline is accelerated by treatment with PGE2. This enhanced rate of cell death correlates with the upregulation of hOB SFRP mRNA levels in these cells following PGE2 treatment. […]
The next day, one set of plates were rinsed with PBS, trypsinized, and baseline cell number (and mean cell volume) was determined with a Coulter Multisizer as previously described in Bodine et al. 1996 J. Bone Miner. […] The other set of plates was placed at the non-permissive temperature of 39° C., and cell number was determined 6 days later (the medium was changed on day 3). […]
The hypothesis that up-regulation of SFRP-1/FRP-1/SARP-2 gene expression accelerates hOB cell death, while down-regulation of SFRP-1/FRP-1/SARP-2 gene expression suppresses cell death, was next examined. […] Finally, treatment of the hOB-03-C5 cells with PGE2 increased annexin V (a specific marker for apoptosis) binding to the cell as measured by flow cytometry (FIG. 11).

| Molecule | up-regulation of SFRP message (hOB SFRP mRNA; normal hOB cells (explant cultures), 100 nM) | fewer cells remaining alive versus control ([1]; hOB-03-C5 and hOB-03-CE6 cells, 100 nM, 6 days) | IC50 (hOB SFRP mRNA; hOB-01-C1 cells, read-out: IC50 for suppression of SFRP gene expression) | suppression of SFRP gene expression (hOB SFRP mRNA; hOB-01-C1 cells, increasing concentrations) | increase in cell viability ([1]; hOB-01-C1 cells, 0.01–1.0 nM, dose-dependent) |
| --- | --- | --- | --- | --- | --- |
| CCCCC[C@H](O)/C=C/[C@H]1[C@H](O)CC(=O)[C@@H]1C/C=C\CCCC(=O)O [PGE2, prostaglandin E2] | 10 fold | over 40% | – | – | – |
| human transforming growth factor-β1 [TGF-β1] | – | – | ~4 pM | approximately 70% | about 2 fold |
